Reference: the supplement of paper PMC8988213
Where a name gives a salt, the structure may show the parent alone.

Tests used:
[1] = tested on: ID188 patient-derived PDAC 2D line (pre-FOLFIRINOX); experiment: normalised area under dose-response curve (viability relative to DMSO, 7 doses up to 10 µM) (fraction (AUC)); higher = less sensitive (more viability retained); conditions: 72 h; top dose: 10 µM
Summary of the method: (§1)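 SelleckChem library compounds were tested for 72 h at seven concentrations (3-fold steps, highest 10 µM) on patient-derived 2D PDAC cells grown out from organoids. These cells had been robotically placed at 1,500–3,000 cells/well in 96-well plates and incubated overnight at 37°C with 5% CO2, and luminescence from CellTiter-Glo was recorded after 10 min. The GRmetrics R package gave the area under the dose-response curve from viability normalised to control wells.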

[2] = tested on: ID211 patient-derived PDAC 2D line (post-FOLFIRINOX); experiment: as above; conditions: 72 h; top dose: 10 µM
Summary of the method: as §1

Structure (SMILES) | normalised area under dose-response curve [1] | normalised area under dose-response curve [2]
CC(C)(C)C(=O)N1N=CC[C@H]1c1ccccc1 [GSK963] | 0.939 | 0.857
CCCOc1ccn2c(C(C)=O)cc(-c3ccccc3S(C)(=O)=O)c2c1 [GSK2801] | 0.964 | 0.782
O=C(O)CCNc1cc(N2CCc3ccccc3CC2)nc(-c2ccccn2)n1 [GSK J1] | 1 | 0.832
Cc1cc(SCc2sc(-c3ccc(C(F)(F)F)c(F)c3)nc2C)ccc1OCC(=O)O [GW0742] | 0.763 | 0.93
O=C(O)Cc1cccc(OCCCN(Cc2cccc(C(F)(F)F)c2Cl)CC(c2ccccc2)c2ccccc2)c1 [GW3965 HCl] | 0.923 | 0.825
O=C(Nc1ccccc1)c1cc([N+](=O)[O-])ccc1Cl [GW9662] | 0.931 | 0.936
CC(C)c1cc(-c2n[nH]c(=O)n2-c2ccc3c(ccn3C)c2)c(O)cc1O [Ganetespib (STA-9090)] | 0.483 | 0.266
Nc1ccn([C@@H]2O[C@H](CO)[C@@H](O)C2(F)F)c(=O)n1 [Gemcitabine HCl] | 0.57 | 0.583
CCn1c2ccccc2c2cc(CNCc3ccccc3OC)ccc21 [HLCL-61 HCL] | 0.957 | 0.856
Cc1nc(Nc2cnn(C3CCNCC3)c2)nc2c1N(C)C(=O)c1cc3ccccc3cc1N2C [HTH-01-015] | 1.2 | 0.823
CCNC(=O)C[C@@H]1N=C(c2ccc(Cl)cc2)c2cc(OC)ccc2-n2c(C)nnc21 [I-BET-762] | 0.888 | 0.777
CCn1cc(-c2cccc(C(F)(F)F)c2)c2sc(C(=N)NC3CCS(=O)(=O)CC3)cc2c1=O [I-BRD9] | 1.01 | 0.833
O=C(O)c1ccc(O)c2ncccc12 [IOX1] | 0.95 | 0.871
O=C(CSc1nc2c(c(=O)n1-c1ccccc1)SCC2)Nc1ccc(-c2ccccc2)cn1 [IWP-L6] | 0.968 | 0.804
O=C(Nc1cccc2cccnc12)c1ccc(N2C(=O)[C@@H]3[C@H](C2=O)[C@@H]2C=C[C@H]3C2)cc1 [IWR-1-endo] | 0.938 | 0.808
CNC(=O)[C@H](Cc1c[nH]c2ccccc12)NC(=O)[C@@H](CC(=O)NO)CC(C)C [Ilomastat (GM6001, Galardin)] | 1.05 | 0.809
CC(Nc1nc(N2CCCC2)nc2ccccc12)c1ccccc1 (stereo not given) [Importazole] | 0.956 | 0.849
O=C1Nc2ccccc2/C1=C1/Nc2ccccc2C1=O [Indirubin] | 0.791 | 0.801
NC(=O)c1ccc(I)c([N+](=O)[O-])c1 [Iniparib (BSI-201)] | 0.939 | 0.952
CCc1c2c(nc3ccc(OC(=O)N4CCC(N5CCCCC5)CC4)cc13)-c1cc3c(c(=O)n1C2)COC(=O)[C@]3(O)CC [Irinotecan HCl Trihydrate] | 0.847 | 0.807

Structure (SMILES) | normalised area under dose-response curve [1] | normalised area under dose-response curve [2]
CC(C)C[C@H](NC(=O)CNC(=O)c1cc(Cl)ccc1Cl)B1OC(=O)C(CC(=O)O)(CC(=O)O)O1 [Ixazomib Citrate (MLN9708)] | 0.425 | 0.48
Clc1ccc(NN=C(c2ccccc2)c2ccccn2)nc1 [JIB-04] | 0.641 | 0.662
Cc1cc(NC(=O)c2cccc(NC(=O)/C=C/CN(C)C)c2)ccc1Nc1nccc(-c2cccnc2)n1 [JNK-IN-8] | 0.874 | 0.842
Cc1ccc(NCCCc2ccccc2)c(N)c1 [JSH-23] | 0.97 | 0.79
O=C(Cc1ccc(-c2ccc(OCCN3CCOCC3)cc2)cn1)NCc1ccccc1 [KX2-391] | 0.624 | 0.508
O=C(O)CCN1C(=O)/C(=C/c2ccc(-c3ccc([N+](=O)[O-])cc3)o2)SC1=S [KYA1797K] | 0.976 | 0.835
CN[C@@H](C)C(=O)N[C@H](C(=O)N1CCC[C@H]1c1nc(C(=O)c2ccc(F)cc2)cs1)C1CCCCC1 [LCL161] | 0.585 | 0.922
CN1CCN(c2ccc(-c3ccncc3-c3cc(F)c(O)c(F)c3)cc2)CC1 [LJH685] | 0.943 | 0.83
Cc1cn(CCN2CCN(c3ccccc3-c3cc(C#N)cc(C(=O)NCCCN4CCCC4)c3)CC2)c2ccccc12 [LLY-507] | 0.859 | 0.842
NCCCC[C@H](NC(=O)[C@@H](NC(=O)[C@H](Cc1c[nH]c2ccccc12)NC(=O)[C@H](CCCCN)NC(=O)[C@H](CCCCN)NC(=O)[C@H](Cc1c[nH]c2ccccc12)NC(=O)[C@H](Cc1c[nH]c2ccccc12)NC(=O)[C@H](CCCCN)NC(=O)[C@@H](N)CCCCN)C(c1ccccc1)c1ccccc1)C(N)=O [LTX-315] | 0.943 | 0.804
Cc1ccc(F)c(NC(=O)Nc2ccc(-c3cccc4[nH]nc(N)c34)cc2)c1 [Linifanib (ABT-869)] | 0.889 | 0.814
C[C@]1(O)C[C@@H](c2nc(-c3ccc4ccc(-c5ccccc5)nc4c3)c3c(N)nccn32)C1 [Linsitinib (OSI-906)] | 0.84 | 0.593
O=C(O)c1nn(Cc2ccc(Cl)cc2Cl)c2ccccc12 [Lonidamine] | 0.934 | 0.87
CCNC(=O)c1noc(-c2cc(C(C)C)c(O)cc2O)c1-c1ccc(CN2CCOCC2)cc1 [Luminespib (AUY-922, NVP-AUY922)] | 0.485 | 0.345
O=c1cc(-c2ccc(O)c(O)c2)oc2cc(O)cc(O)c12 [Luteolin] | 0.82 | 0.754
CN(CCNc1ccnc2cc(Cl)ccc12)CCNc1ccnc2cc(Cl)ccc12 [Lys05] | 0.921 | 0.796
CCC1C/C(=C\c2cccnc2)C(=O)/C(=C/c2cccnc2)C1 (stereo not given) [MCB-613] | 0.764 | 0.778
COCCOc1nc(-c2ccc(Cl)c(Cl)c2)n(-c2ccc(NC(=O)CCl)cc2)n1 [MI-2 (MALT1 inhibitor)] | 0.897 | 0.573
Cc1c(CN2CCC(Nc3ncnc4sc(CC(F)(F)F)cc34)CC2)ccc2[nH]c(C#N)cc12 [MI-463] | 0.713 | 0.825
Cc1c(CN2CCC(Nc3ncnc4sc(CC(F)(F)F)cc34)CC2)ccc2c1cc(C#N)n2Cc1cn[nH]c1 [MI-503] | 0.871 | 0.805
